Data reported in patent US20210308078A1, “NEW USE OF INHIBITORS OF MONOAMINE OXIDASE TYPE B” (ISTITUTO Di RICERCA PEDiATRiCA CITTA DELLA SPERANZA, priority 2018, published 2021).

Tests used:
[1] = system: MAOA, MAOB; settings: cited from earlier work
[2] = system: IL-1β; assay: IL-1β release in human macrophages (ELISA); type: cell-based; settings: LPS/ATP and LPS/nigericin, 8 h, pargyline 100 μM, rasagiline 5 μM, NAC 5 mM
Protocol: FIG. 6. […] The levels of IL-1β in the supernatants were quantified by means of ELISA test. The values are the average of at least 3 independent experiments±SEM.
(§1) Human monocytes derived from buffy coats obtained from healthy donors were prepared as described in Cathcart, M. K., and Bhattacharjee, A. (2014). […] For macrophage differentiation, 5×10^6 monocytes, seeded in 24-well plates, were cultivated in RPMI 20% FBS in the presence of 10 ng/ml GM-CSF (Miltenyi Biotec) for 7 days. For inflammasome activation, 2×10^6 cells in 6-well plates were treated for 8 h with 100 ng/m1 of LPS Ultra-pure combined with ATP (1 mM) or nigericine (15 μM, added the last 30 min).

[3] = system: caspase-1; assay: Caspase-1 activation assay (FLICA 660-YVAD-FMK, FACS) in human macrophages; type: cell-based; settings: LPS/ATP and LPS/nigericin, 8 h; pargyline 100 μM, rasagiline 5 μM, NAC 5 mM
Protocol: The cells were then marked with fluorescent antibodies anti-MHCII and analysed by FACS. The activity of the inflammasome was expressed as % of the cells that were positive for caspase-1 and for MHCII in relation to the total. The values are the average of at least 3 independent experiments±SEM.
as §1
The activation of caspase-1 in human macrophages was monitored by way of flow cytometry analysis. The cells, subjected to various treatments, were incubated at 37° C. for 3 h with FLICA 660-YVAD-FMK and washed according to the manufacturer's instructions (FLICA®660 Caspase-1 Assay Kit; ImmunoChemistry Technologies). […] The analysis was performed using CellQuest software (Becton Dickinson) in cells positive for caspase-1 and MHCII.

[4] = system: IL-1β; assay: IL-1β release in murine macrophages (ELISA); type: cell-based; settings: LPS 100 ng/ml + ATP 5 mM, 4 h, pargyline 100 μM, rasagiline 5 μM
Text: FIG. 7. […] The levels of IL-1β in the supernatants were quantified by means of ELISA test.
Murine macrophages isolated from bone marrow were obtained from the tibia and femoral bone as described in Coll, R. C., Robertson, A. A., Chae, J. J., Higgins, S. C., Munoz-Planillo, R., Inserra, M. C., Vetter, I., Dungan, L. S., Monks, B. G., Stutz, A., et al. (2015). A small-molecule inhibitor of the NLRP3 inflammasome for the treatment of inflammatory diseases. Nature medicine 21, 248-255.
[…] ATP (5 mM, added the last 30 min).
The culture media sampled from stimulated and control human and murine macrophages were stored at −80° C. The levels of IL-1β0 were determined by means of commercially available ELISA kits (eBioscience) and were developed using 3,3′,5,5′-tetramethyl benzidine (TMB). The optical densities were measured at 450 nm by means of a microplate reader (Sunrise, Tecan; Switzerland).

[5] = system: MAO; settings: human macrophages stimulated 8 h with LPS, LPS/ATP or LPS/nig; pargyline 100 μM, rasagiline 5 μM
Protocol: The intracellular levels of dopamine and norepinephrine (both substrates of MAO) were measured by means of mass spectrometry on cell lysates extracted with methanol:water (70:30). […] The values are the average of at least 3 independent experiments±SEM.
as §1

[6] = system: NF-κB; settings: murine macrophages
Text: The values are the average of at least 3 independent experiments±SEM.

[7] = system: human macrophages; settings: stimulation with LPS/ATP and LPS/nigericine, 3 h; rasagiline 5 μM
Protocol: The images were acquired by means of fluorescence microscopy. The data are expressed as fluorescence intensity and are normalised with respect to unstimulated cells (unst). The values are the average of at least 3 independent experiments±SEM.
as §1
ROS were determined by means of carboxymethyl-dichlorofluorescein (CM-DCFDA). […] After 3 h of stimulation the cells were loaded with CM-DCFDA (2.5 μM) for 30 min. All of the steps were performed at 37° C. with 5% CO2. The cells were washed with PBS and the images were acquired using a Leica DMI6000B microscope (Wetzlar, Germany). The fluorescence was measured at 6-8 random intervals per slide and an average value was recorded. The fluorescence emission was performed using excitation filters of emission 488±20 nm and 645±37 nm. The data were acquired and analysed by means of Metafluor software (Universal Imaging).

[8] = system: human macrophages; settings: 8 h of stimulation; rasagiline 5 μM pre-treatment
Protocol: After 8 h of stimulation, the macrophages were loaded with tetramethylrhodamine methyl ester (TMRM, 50 nM) to determine the mitochondrial membrane potential. After acquisition of images by fluorescence microscopy, the uncoupling agent FCCP (4 μM) was added to collapse the mitochondrial potential. The difference of the fluorescence intensity obtained before and after FCCP is shown in the graph and reflects the mitochondrial membrane potential. The data are expressed as fluorescence intensity and are normalised with respect to unstimulated cells (unst). The values are the average of at least 3 independent experiments±SEM. […]
The mitochondrial membrane potential was measured on the basis of the accumulation of tetramethylrhodamine methyl ester (TMRM, Molecular Probes) as described in Sorato, E., Menazza, S., Zulian, A., Sabatelli, P., Gualandi, F., Merlini, L., Bonaldo, P., Canton, M., Bernardi, P., and Di Lisa, F. (2014). […] The medium was then substituted with a medium devoid of serum integrated with TMM 25 nM for 30 minutes, and the cell fluorescence images were acquired using a Leica microscope (Wetzlar, Germany) DMI6000B. The data were acquired and analysed by means of Metafluor software (Universal Imaging). An excitation of 540±20 nm and a 590 nm longpass emission filter were used to reveal the fluorescence. […]

[9] = system: mice treated with LPS; settings: rasagiline 0.5 mg/kg per os 12 h before LPS 10 mg/kg ip, 8 h
Protocol: In parallel, a group of mice (ct) were treated with only the vehicle (PBS, ip). At the end, a sample of blood was taken and the plasma levels of IL-1β0 were quantified by means of Elisa test. […] The values are the average of at least 3 independent experiments±SEM.
In parallel, a group of mice (ct) were treated with only the vehicle (PBS, ip). At the end, peritoneal washing with 2 ml of PBS was performed, as well as a leukocyte count.
Adult mice were treated with a single injection of LPS (10 mg/kg ip) for 8 h or of vehicle (PBS, ip). […] At the end, the animals were sacrificed and samples were taken of blood and the peritoneal exudate.
Male mice (strain C57BL/6J) of age 8-10 weeks and weight approximately 30 gr. were subjected to an intraperitoneal injection with LPS (10 mg/kg, L4130, Sigma-Aldrich) or vehicle (saline solution, called PBS). […] The treated animals were sacrificed 8 hours after the injection (considered as time 0), by means of cervical dislocation. Immediately after the sacrifice an intraperitoneal washing was performed with 2 ml of PBS and any exudate present was collected to determine the leukocyte count. In addition, samples of blood were taken and frozen after obtaining the plasma for analysis of IL-1β by means of ELISA test.

| Compound | selectivity of inhibition for MAOA / MAOB isoforms [1] | release of IL-1β in supernatants [2] | activity of the inflammasome (% cells positive for caspase-1 and MHCII) [3] | release of IL-1β in supernatants [4] | intracellular concentration of dopamine [5] | activation of NF-κB [6] | protein levels of pro-IL-1β [6] | production of ROS [7] | mitochondrial depolarisation (mitochondrial membrane potential, TMRM) [8] | concentration of leucocytes in the peritoneal liquid [9] | plasma levels of IL-1β [9] |
| --- | --- | --- | --- | --- | --- | --- | --- | --- | --- | --- | --- |
| N[C@@H]1C[C@H]1c1ccccc1 (racemic) [tranylcypromine] | lack selectivity | – | – | – | – | – | – | – | – | – | – |
| CC(=O)N[C@@H](CS)C(=O)O [N-acetylcysteine] | – | effect is similar | effect is similar | – | – | – | – | – | – | – | – |
| NNCCc1ccccc1 [phenelzine] | lack selectivity | – | – | – | – | – | – | – | – | – | – |
| C#CCN(C)Cc1ccccc1 [pargyline] | able to inhibit both the isoforms | significantly inhibit the release of IL-1β | significantly inhibit the activity of the inflammasome | significantly inhibit the release of IL-1β | increases subsequently | – | – | – | – | – | – |
| C#CCN[C@@H]1CCc2ccccc21 [rasagiline] | MAOB are selectively inhibited | significantly inhibit the release of IL-1β | significantly inhibit the activity of the inflammasome | significantly inhibit the release of IL-1β | increases subsequently | reduce the activation of NF-κB | reduce | reduces the production of ROS | significantly reduce the mitochondrial depolarisation | clear reduction of the concentration of leucocytes | drastically reduces the increase of plasma levels of IL-1β |
